# Laboratory results taken from patent US8829007B2 (priority 2009, dated 2014).
# Tested on: influenza A virus (A/PR/8/34)
# Test: microbe, parasite or virus in culture
# Assay type: cell-based
# Conditions: Influenza A virus, PR/8, MDCK, MDCK cells infected with A/PR/8/34; survival of infected cells; class symbols; read-out: IC50 (mean all)
row,SMILES,IC50 [µM]
1,O=C(OCC1CCOC1)N1CC[C@H](Nc2nc(-c3c[nH]c4ncc(Cl)cc34)ncc2F)C1 (some centres unmarked) [Compound 484],5 to 20
2,CC(=O)N1CCC[C@H](Nc2ccnc(-c3c[nH]c4ncc(Cl)cc34)n2)C1 [Compound 485],5 to 20
3,"COC(=O)CCC(=O)N1CCCC(Nc2ccnc(-c3c[nH]c4ncc(Cl)cc34)n2)C1 [Compound 487, (S)-methyl 4-(3-((2-(5-chloro-1H-pyrrolo[2,3-b]pyridin-3-yl)pyrimidin-4-ylamino)piperidin-1-yl)-4-oxobutanoate]",5 to 20
4,CC(C)CC(=O)N1CCC[C@H](Nc2ccnc(-c3c[nH]c4ncc(Cl)cc34)n2)C1 [Compound 489],< 5
5,"COCC(=O)N1CCC[C@H](CNc2ccnc(-c3c[nH]c4ncc(Cl)cc34)n2)C1 [Compound 491, (R)-1-(3-((2-(5-chloro-1H-pyrrolo[2,3-b]pyridin-3-yl)pyrimidin-4-ylamino)methyl)piperidin-1-yl)-2-methoxyethanone]",< 5

# Same assay, conditions: Influenza A virus, PR/8, MDCK, mean all; A/PR/8/34 infected MDCK cells, CPE assay; read-out: IC50
row,SMILES,IC50 [µM]
1,"O=C(OC1CCOC1)N1CC(Nc2nc(-c3c[nH]c4ncc(Cl)cc34)ncc2F)C1 [Compound 422, (S)-tetrahydrofuran-3-yl 3-((2-(5-chloro-1H-pyrrolo[2,3-b]pyridin-3-yl)-5-fluoropyrimidin-4-ylamino)azetidine-1-carboxylate]",> 20
2,O=C(O[C@H]1CCOC1)N1CC[C@@H](Nc2nc(-c3c[nH]c4ncc(Cl)cc34)ncc2F)C1 [Compound 424],> 20
3,"CN(C)C(=O)N[C@H]1CCCC[C@@H]1Nc1nc(-c2c[nH]c3ncc(Cl)cc23)ncc1F [Compound 427, 3-[(1S,2S)-2-[[2-(5-chloro-1H-pyrrolo[2,3-b]pyridin-3-yl)-5-fluoro-pyrimidin-4-yl]amino]cyclohexyl]-1,1-dimethyl-urea]",> 20
4,CC(C)C(=O)N1CCC[C@H](Nc2nc(-c3c[nH]c4ncc(Cl)cc34)ncc2F)C1 [Compound 436],< 5
5,CC(C)(C)C(=O)N1CCC[C@H](Nc2nc(-c3c[nH]c4ncc(Cl)cc34)ncc2F)C1 [Compound 437],> 20
6,CCOC(=O)N1CCC[C@H](Nc2nc(-c3c[nH]c4ncc(Cl)cc34)ncc2F)C1 [Compound 441],5 to 20
7,CC(C)OC(=O)N1CCC[C@H](Nc2nc(-c3c[nH]c4ncc(Cl)cc34)ncc2F)C1 [Compound 442],5 to 20
8,CC1(C(=O)N2CCC[C@H](Nc3nc(-c4c[nH]c5ncc(Cl)cc45)ncc3F)C2)CC1 [Compound 445],< 5
9,"CC(C)NC(=O)N1CCOC(CNc2nc(-c3c[nH]c4ncc(Cl)cc34)ncc2F)C1 (centres unmarked) [Compound 446, 2-((2-(5-chloro-1H-pyrrolo[2,3-b]pyridin-3-yl)-5-fluoropyrimidin-4-ylamino)methyl)-N-isopropylmorpholine-4-carboxamide]",> 20
10,"CC(C)OC(=O)N1CCOC(CNc2nc(-c3c[nH]c4ncc(Cl)cc34)ncc2F)C1 (centres unmarked) [Compound 447, Isopropyl 2-((2-(5-chloro-1H-pyrrolo[2,3-b]pyridin-3-yl)-5-fluoropyrimidin-4-ylamino)methyl)morpholine-4-carboxylate]",> 20
11,"CC(C)S(=O)(=O)N1CCOC(CNc2nc(-c3c[nH]c4ncc(Cl)cc34)ncc2F)C1 (centres unmarked) [Compound 448, 2-(5-chloro-1H-pyrrolo[2,3-b]pyridin-3-yl)-5-fluoro-N-((4-(isopropylsulfonyl)morpholin-2-yl)methyl)pyrimidin-4-amine]",> 20
12,"CCC(=O)N1CCOC(CNc2nc(-c3c[nH]c4ncc(Cl)cc34)ncc2F)C1 (centres unmarked) [Compound 449, 1-(2-((2-(5-chloro-1H-pyrrolo[2,3-b]pyridin-3-yl)-5-fluoropyrimidin-4-ylamino)methyl)morpholino)propan-1-one]",5 to 20
13,"O=C(C1CC1)N1CCOC(CNc2nc(-c3c[nH]c4ncc(Cl)cc34)ncc2F)C1 (centres unmarked) [Compound 450, (2-((2-(5-chloro-1H-pyrrolo[2,3-b]pyridin-3-yl)-5-fluoropyrimidin-4-ylamino)methyl)morpholino)(cyclopropyl)methanone]",5 to 20
14,O=C(C1CC1)N1CCC[C@H](Nc2nc(-c3c[nH]c4ncc(Cl)cc34)ncc2F)C1 [Compound 451],5 to 20
15,COCC(=O)N1CC(Nc2nc(-c3c[nH]c4ncc(Cl)cc34)ncc2F)C1 [Compound 468],5 to 20
16,"O=S(=O)(CC1CCCC1)N1CC(Nc2nc(-c3c[nH]c4ncc(Cl)cc34)ncc2F)C1 [Compound 469, 2-(5-chloro-1H-pyrrolo[2,3-b]pyridin-3-yl)-N-(1-(cyclopentyl-methylsulfonyl)azetidin-3-yl)-5-fluoropyrimidin-4-amine]",> 20
17,CC1(C(=O)N2CC[C@@H](Nc3nc(-c4c[nH]c5ncc(Cl)cc45)ncc3F)C2)COC1 [Compound 473],5 to 20
18,COC(=O)N1CC[C@H](Nc2nc(-c3c[nH]c4ncc(Cl)cc34)ncc2F)C1 [Compound 476],5 to 20
19,CC(C)OC(=O)N1CC[C@H](Nc2nc(-c3c[nH]c4ncc(Cl)cc34)ncc2F)C1 [Compound 477],> 20
20,"O=S(=O)(CC1CCCC1)N1CC[C@H](Nc2nc(-c3c[nH]c4ncc(Cl)cc34)ncc2F)C1 [Compound 479, (S)-2-(5-chloro-1H-pyrrolo[2,3-b]pyridin-3-yl)-N-(1-(cyclopentylmethylsulfonyl)pyrrolidin-3-yl)-5-fluoropyrimidin-4-amine]",> 20
21,CC(=O)N1CC[C@H](Nc2nc(-c3c[nH]c4ncc(Cl)cc34)ncc2F)C1 [Compound 480],< 5
22,COCC(=O)N1CC[C@H](Nc2nc(-c3c[nH]c4ncc(Cl)cc34)ncc2F)C1 [Compound 481],5 to 20
23,CC1(C(=O)N2CC[C@H](Nc3nc(-c4c[nH]c5ncc(Cl)cc45)ncc3F)C2)COC1 [Compound 482],< 5
24,O=C(C1CNCCO1)N1CC[C@H](Nc2nc(-c3c[nH]c4ncc(Cl)cc34)ncc2F)C1 (some centres unmarked) [Compound 483],> 20

# Same assay, conditions: Influenza A virus, PR/8, MDCK; read-out: IC50
row,SMILES,IC50 [µM]
1,CCCS(=O)(=O)N1CC(Nc2nc(-c3c[nH]c4ncc(Cl)cc34)ncc2F)C1 [Compound 423],> 20

# Same assay, conditions: MDCK cells infected with A/PR/8/34; survival of infected cells; class symbols; read-out: IC50 (mean all)
row,SMILES,IC50 [µM]
1,COC(=O)CCC(=O)N1CCCC(CNc2ccnc(-c3c[nH]c4ncc(Cl)cc34)n2)C1 (centres unmarked) [Compound 492],5 to 20

# Same assay, conditions: mean all; A/PR/8/34 infected MDCK cells, CPE assay; read-out: IC50
row,SMILES,IC50 [µM]
1,O=C(OC1CCOC1)N1CCC(Nc2nc(-c3c[nH]c4ncc(Cl)cc34)ncc2F)C1 (centres unmarked) [Compound 421],5 to 20
2,CC(=O)NC1CCCCC1Nc1nc(-c2c[nH]c3ncc(Cl)cc23)ncc1F (centres unmarked) [Compound 429],5 to 20
3,CC(C)S(=O)(=O)N1CCCC(Nc2ccnc(-c3c[nH]c4ncc(Cl)cc34)n2)C1 (centres unmarked) [Compound 465],5 to 20
4,CS(=O)(=O)N1CCCC(Nc2ccnc(-c3c[nH]c4ncc(Cl)cc34)n2)C1 (centres unmarked) [Compound 466],5 to 20
5,O=C(C1CCOC1)N1CCC(Nc2nc(-c3c[nH]c4ncc(Cl)cc34)ncc2F)C1 (centres unmarked) [Compound 467],> 20
6,CC(=O)N1CCC(Nc2nc(-c3c[nH]c4ncc(Cl)cc34)ncc2F)C1 (centres unmarked) [Compound 471],< 5
7,O=C(OCC1CCOC1)N1CCC(Nc2nc(-c3c[nH]c4ncc(Cl)cc34)ncc2F)C1 (centres unmarked) [Compound 475],> 20

# Same assay, conditions: read-out: IC50
row,SMILES,IC50 [µM]
1,O=C(C1CCOC1)N1CC[C@H](Nc2nc(-c3c[nH]c4ncc(Cl)cc34)ncc2F)C1 (some centres unmarked) [Compound 478],5 to 20

# Same assay, conditions: read-out: IC50 (mean all)
row,SMILES,IC50 [µM]
1,COCC(=O)N1CCC[C@H](Nc2nc(-c3c[nH]c4ncc(Cl)cc34)ncc2F)C1 [Compound 486],5 to 20
2,COCCC(=O)N1CCC[C@H](Nc2nc(-c3c[nH]c4ncc(Cl)cc34)ncc2F)C1 [Compound 488],> 20
